Measured values: patent US10517952B2, “Nucleophile-triggered degradable materials and methods of making and using the same” (GEORGIA TECH RESEARCH CORPORATION, priority 2014, dated 2019)
Several values for one entry are separate records, joined by “and”; a condition that tells them apart may be missing. Equal entries are not always repeated.

What was measured:
Assay type in all cases: physicochemical
[1] = Residual hydrogel thiol content with fluorogenic OND probe S-6; conditions: for Residual thiols in the gel network, average: average of both sets of gels from linkers 7a and 8, % of input macromer thiol content; for Gel Fraction % Residual Thiol: residual thiol in the gel, % of initial thiol content of input macromer; for Sol Fraction % Residual Thiol: thiol in supernatant, % of input thiol, swelled 18 hours at 4° C., pH 7.4 PBS, probe S-6
Method: The thiol content of cured hydrogels was determined by swelling gels in the presence of a small fluorogenic OND S-6, which we have previously described in our lab.
This probe reacts with thiols to produce a fluorescent adduct (FIG. 14A). […] Thus, the concentration of reagent S-6 in solution can be determined by quenching with thiol. Similarly, reagent S-6 can be used to quantify thiol in solution.
Based on cargo diffusion studies (see section X of this document), we expected that probe S-6 should easily permeate the hydrogel network under swelling conditions and react with accessible residual thiols present in the gel network. In order to test this hypothesis, 60 μL hydrogels were freshly prepared from 4-PEG-SH macromer and either linkers 8 or 7a as described in section III of this document. After curing for 20 minutes at room temperature, 3 mL of pH 7.4 0.1M PBS buffer containing 200 μM probe S-6 was added, and the gel was swelled at 4° C. for 18 hours. To account for hydrolytic degradation of our thiol probe during incubation, a sample was prepared with S-6 in buffer alone (lacking 4-PEG-SH and bis-OND linkers). After swelling, the gels were observed under long-wave ultraviolet light to reveal strongly fluorescent gels and weakly fluorescent supernatants (FIG. 15). […] Presumably the fluorescence in the supernatant of samples containing gels is due to soluble fraction of 4-PEG-SH macromer and oligomers not incorporated into the gel network.
In order to calculate the amount of residual thiol present in the soluble fraction, aliquots of the supernatant were removed and fluorescence was measured. Thiol content of the soluble fraction was determined by interpolation using the standard curve shown in FIG. 14 after accounting for fluorescence due to hydrolytic degradation. […] This amount corresponds well with the soluble fraction (soluble fraction=1−gel fraction) determined from swelling experiments (see Table 1 of main text). To determine residual thiol content present in gels, aliquots of the supernatant were quenched with a large excess (10 mM) of N-acetyl cysteine and the increase in fluorescence was measured to determine the amount of unreacted S-6 remaining in the supernatant. Accounting for the amount of probe already consumed by reaction with soluble fraction thiols and by hydrolytic degradation, the amount of residual thiol accessible for post-modification present in the gel was calculated as 13.4±1.4% and 10.8±2.4% of the initial thiol content of input macromer (average of 11.8±3.3 for both sets of gels prepared from linkers 7a and 8).

[2] = Calculation of hydrogel mesh size from equilibrium swelling data; conditions: for Average mesh size: average for equilibrium swelled hydrogels from linkers 7a, 7b and 8; for Calculated mesh size: equilibrium-swollen gels
Method: Using the calculated molecular weight between crosslinks, Mc, and the method previously described by Canal and Peppas, the hydrogel mesh size was calculated. First, the root-mean-square end-to-end distance of the polymer chains in the network, (r0^2)^1/2, was calculated as follows: (r0^2)^1/2=lCn^1/2n^1/2 (Equation S10) where l is the average bond length in the polymer (0.146 nm for PEG) and Cn is the characteristic ratio of the polymer (4.0 for PEG). The average number of bonds between crosslinks, n is calculated using the following equation:
[formula] where Mc is the average molecular weight between crosslinks, calculated as described in the previous section, and Mr is the molecular weight of the repeating unit for the PEG macromer (44 g/mol). Finally, the mesh size, ξ, is calculated using the following relationship: ξ=v2,s^−1/3(r0^2)^1/2 (Equation S12) where v2, is the partial volume of polymer in the equilibrium swollen hydrogel, and is calculated using the experimentally determined equilibrium weight swelling ratios.

[3] = Degradation of neat PEG-OND hydrogels (inversion test, time-lapse photography)
Method: Degradation rates of the PEG-OND hydrogels in the absence of swelling buffer varied with temperature and with the identity of OND used to form the gel. […] In comparison, gels formed using 7b were stable for more than 60 hours at 37° C., and approximately 13 hours at 50° C.
Three 500 μL 3.5 wt % hydrogels were formed with bis-ONDs 7a and 7b, and bis-EONB 8, respectively, in 2 mL vials with caps. The sealed vials were incubated in an oil bath maintained at 50° C. The samples were periodically removed from heat and the vials were inverted to determine if the gel was still intact, or whether the sample was a free-flowing liquid, as described in the main text. The gel formed between 4-PEG-SH and bis-EONB 8 in FIG. 9 was removed from heat after 5 days, and stored at room temperature in a sealed vial. The hydrogel is still intact at the time of writing (5 days at 50° C. followed by >1 year at room temperature). The inversion test was routinely used in all stability experiments to verify hydrogel integrity during incubation.
In order to observe reverse gelation upon prolonged heating of neat hydrogels, time-lapse photography was carried out. Briefly, 600 μL hydrogels comprised of 3.5 wt % 4-PEG-SH+bis-OND/EONB (7a, 7b, and 8, respectively) in pH 7.4 100 mM potassium phosphate buffer containing 7% DMSO (v/v) were formed in glass culture tubes and allowed to set for 15 minutes. A glass bead (˜160 mg, stained with blue Sharpie-brand marker to improve visibility) was placed carefully on top of each gel, and a drop of silicon oil was added to prevent evaporation at the surface of the gels. The tubes were sealed with lab parafilm and incubated in a 50° C. oil bath. Photos were collected every 2 minutes for ˜22 hours using Chronolapse software (v.1.0.4) and a Creative Labs webcam. Photographs were compiled in chronological order using iMovie software, with each photo occupying one 0.1 s frame. The resulting video is available as S1 Video, mentioned above.

[4] = Oscillatory rheology of PEG-OND hydrogels; conditions: pH 7.2, 37° C., strain 1%, 1 rad/sec, after 2-3 hours
Method: Oscillatory rheology was used to assess the viscoelastic properties of selected PEG-OND hydrogels. […] The truncated cone was then brought in contact with the bis-EONB/4-PEG-SH mixture before setting of the gel by positioning the tool at the measuring position. The sample was inspected for spillovers and trimmed as required. A preliminary preshearing step consisting of 30 seconds at 0.1% strain and ω=0.01 rad/s was performed to ensure good contact with the gel sample. The elastic (storage) and viscous (loss) moduli, G′ and G″, respectively, were then measured as a function of time for a constant strain of 1% and an angular frequency of 1 rad/sec. The ability to store energy is described by G′, while the amount of energy dissipated is related with G″. It was observed that the sample experienced a rapid transformation from an initial state in which G′ was not much larger than G″ to a state in which G′ was clearly predominant, as shown in FIG. 5; this is consistent with gelation. The observed transformation happened in the first few minutes after preparation, even when the hydrogel continued to rigidify for up to 2-3 hours.
The linear regime of this sample was determined by performing an oscillatory strain sweep at 37° C. The frequency sweep shown in the main text was thus performed in the linear region.
[…] In both experiments, G′>>G″.

Gel stability by inversion test ([3]; neat gel, no swelling buffer, 4° C.) | Time gel is stable / collapses (inversion test) ([3]; neat gel, no swelling buffer, 37° C.) [h] | Time gel is stable / collapses (inversion test) ([3]; neat gel, no swelling buffer, 50° C.) [h] | Structure (SMILES) | Residual thiols in the gel network, average [1] [%] | Gel Fraction % Residual Thiol [1] | Sol Fraction % Residual Thiol [1] [%] | Average mesh size [2] [nm] | Calculated mesh size [2] [nm] | Gel integrity on extended heating (inversion test) ([3]; neat gel, 50° C.) | Storage modulus G′ versus loss modulus G″ [4] | Inversion test for hydrogel degradation (FIG. 1B) [3] | Long-term gel integrity ([3]; 5 days at 50° C. followed by >1 year at room temperature) | Gel stability by time-lapse photography, gel supporting a glass bead ([3]; neat gel, heating (50° C.))
stable for more than two weeks | 12 | ≤ 3 | COC(=O)C1=C(C(=O)OC)C2(CNC(=O)CCCC(=O)NCC34C=CC(O3)C(C(=O)OC)=C4C(=O)OC)C=CC1O2 [Linker 7a, Tetramethyl 1,1′-((glutaroylbis(azanediyl))bis(methylene))bis(7-oxabicyclo[2.2.1]hepta-2,5-diene-2,3-dicarboxylate)] | 11.8±3.3 | 10.8±2.4% | 8.1±3.2 | 14.0±1.0 | 15.2 ± 0.9 | collapsed | – | – | – | –
– | – | – | COC(=O)C1=C(C(=O)OC)C2(CNC(=O)CCCC(=O)NCC34OC(C(C(=O)OC)=C3C(=O)OC)C3OC34)OC1C1OC12 (stereo not shown) [Linker 8, Tetramethyl 1,1′-((glutaroylbis(azanediyl))bis(methylene))bis(3,8-dioxatricyclo[3.2.1.0^2,4]oct-6-ene-6,7-dicarboxylate)] | 11.8±3.3 | 13.4±1.4% and 12.8 ± 2.2% | 2.1±0.4 | 14.0±1.0 | 14.0 ± 0.9 | remained intact | G″ was negligible in comparison with G′ | stable indefinitely | still intact | remained intact
